Like-named read-outs stand apart in the source and are kept apart here.
Assays:
[1] = molecular target: T1, HCV NS3/4A protease complex, BMS strain (UniProt P27958, species not given/STRAIN_BMS); assay: FRET peptide assay to monitor HCV NS3/4A proteolytic activity (BMS strain); assay type: biochemical, Hepatitis C virus (genotype 1a); settings: NS3/4A BMS strain, enzyme assay
T1 construct: DNA encoding the recombinant HCV NS3/4A protease complex (amino acids 1027 to 1711) for these strains [H77 and J4L6S]; fused on or other part: For the H77 and J4L6S constructs, a three-lysine solubilising tail at the NS4A C-terminus and a Ni-NTA-purifiable tag from pET21b
Procedure, shortened: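 Recombinant NS3/4A complexes (aa 1027–1711) with C-terminal three-lysine tail, C1711G and C1454S, expressed in E. coli BL21(DE3) (0.5 mM IPTG, 22 h, 20°C) for H77 (1a) and J4L6S (1b); BMS strain is genotype 1a patient isolate. Purified by Ni-NTA and Superdex-S200; proteolysis monitored by FRET peptide cleavage.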

[2] = system: human pancreatic chymotrypsin; assay: Specificity assay, chymotrypsin; assay type: biochemical; settings: 2 h enzyme-inhibitor pre-incubation; read-out: Chymotrypsin activity in the specificity assays
Procedure: (§1) The specificities of compounds of the present disclosure were determined against a variety of serine proteases: human neutrophil elastase (HNE), porcine pancreatic elastase (PPE) and human pancreatic chymotrypsin and one cysteine protease: human liver cathepsin B. In all cases a 96-well plate format protocol using colorimetric p-nitroaniline (pNA) substrate specific for each enzyme was used as described previously (PCT Patent Application No. WO 00/09543) with some modifications to the serine protease assays. All enzymes were purchased from Sigma while the substrates were from Bachem.
(§2) Each assay included a 2 h enzyme-inhibitor pre-incubation at room temperature followed by addition of substrate and hydrolysis to ˜30% conversion as measured on a Spectramax Pro microplate reader. Compound concentrations varied from 100 to 0.4 μM depending on their potency.
(§3) The final conditions for each assay were the same as those described in WO 03/099274, page 623.
(§4) The percentage of inhibition was calculated using the formula: [1−((UVinh−UVblank)/(UVctl−UVblank))]×100
(§5) A non-linear curve fit was applied to the inhibition-concentration data, and the 50% effective concentration (IC50) was calculated by the use of Excel XLfit software.

[3] = molecular target: T2, HCV NS3/4A protease complex, J4L6S strain (Hepatitis C virus genotype 1b, UniProt O92972, C1454S/C1711G); assay: FRET peptide assay to monitor HCV NS3/4A proteolytic activity (J4L6S strain); assay type: biochemical
T2 construct: recombinant HCV NS3/4A protease complex (amino acids 1027 to 1711) for these strains; inferred from pET21b vector and Ni-NTA purification; made in house; host or cells: Escherichia coli BL21 (DE3), pET21b
Source text: Generation of Recombinant HCV NS3/4A Protease Complex
HCV NS3 protease complexes, derived from the BMS strain, H77 strain or J4L6S strain, were generated, as described below. These purified recombinant proteins were generated for use in a homogeneous assay (see below) to provide an indication of how effective compounds of the present disclosure would be in inhibiting HCV NS3 proteolytic activity.
Serum from an HCV-infected patient was obtained from Dr. T. Wright, San Francisco Hospital. An engineered full-length cDNA (compliment deoxyribonucleic acid) template of the HCV genome (BMS strain) was constructed from DNA fragments obtained by reverse transcription-PCR (RT-PCR) of serum RNA (ribonucleic acid) and using primers selected on the basis of homology between other genotype 1a strains. From the determination of the entire genome sequence, a genotype 1a was assigned to the HCV isolate according to the classification of Simmonds et al. (See P Simmonds, K A Rose, S Graham, S W Chan, F McOmish, B C Dow, E A Follett, P L Yap and H Marsden, J. Clin. Microbiol., 31(6), 1493-1503 (1993)). […]

[4] = molecular target: T3, human liver cathepsin B (Homo sapiens, UniProt P07858); assay: Specificity assay, cathepsin B; assay type: biochemical; settings: 2 h enzyme-inhibitor pre-incubation; read-out: Cathepsin B activity in the specificity assays
T3 construct: purchased Sigma; host or cells: human liver
Procedure: as §1, §2, §3, §4, §5

T1 sequence (P27958 1027-1657, stated change not applied, one chain of several): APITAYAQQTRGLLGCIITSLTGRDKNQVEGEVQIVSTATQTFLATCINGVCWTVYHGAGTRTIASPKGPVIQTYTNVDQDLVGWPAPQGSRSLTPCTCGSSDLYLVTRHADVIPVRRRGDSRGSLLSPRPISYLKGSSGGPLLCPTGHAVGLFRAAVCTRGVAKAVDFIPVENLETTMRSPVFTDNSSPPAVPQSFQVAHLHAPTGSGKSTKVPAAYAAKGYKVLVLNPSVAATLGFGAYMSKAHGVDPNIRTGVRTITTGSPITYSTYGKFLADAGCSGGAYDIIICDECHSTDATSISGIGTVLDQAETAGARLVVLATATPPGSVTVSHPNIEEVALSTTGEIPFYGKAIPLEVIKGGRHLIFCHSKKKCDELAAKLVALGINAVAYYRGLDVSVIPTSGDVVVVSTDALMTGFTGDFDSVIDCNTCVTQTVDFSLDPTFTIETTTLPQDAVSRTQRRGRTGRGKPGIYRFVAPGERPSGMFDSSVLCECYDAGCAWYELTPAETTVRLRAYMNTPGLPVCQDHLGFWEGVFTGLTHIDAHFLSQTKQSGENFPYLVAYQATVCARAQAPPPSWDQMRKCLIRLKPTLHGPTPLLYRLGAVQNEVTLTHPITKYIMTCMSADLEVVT
T2 sequence (O92972 1027-1711 C1454S/C1711G, one chain of several): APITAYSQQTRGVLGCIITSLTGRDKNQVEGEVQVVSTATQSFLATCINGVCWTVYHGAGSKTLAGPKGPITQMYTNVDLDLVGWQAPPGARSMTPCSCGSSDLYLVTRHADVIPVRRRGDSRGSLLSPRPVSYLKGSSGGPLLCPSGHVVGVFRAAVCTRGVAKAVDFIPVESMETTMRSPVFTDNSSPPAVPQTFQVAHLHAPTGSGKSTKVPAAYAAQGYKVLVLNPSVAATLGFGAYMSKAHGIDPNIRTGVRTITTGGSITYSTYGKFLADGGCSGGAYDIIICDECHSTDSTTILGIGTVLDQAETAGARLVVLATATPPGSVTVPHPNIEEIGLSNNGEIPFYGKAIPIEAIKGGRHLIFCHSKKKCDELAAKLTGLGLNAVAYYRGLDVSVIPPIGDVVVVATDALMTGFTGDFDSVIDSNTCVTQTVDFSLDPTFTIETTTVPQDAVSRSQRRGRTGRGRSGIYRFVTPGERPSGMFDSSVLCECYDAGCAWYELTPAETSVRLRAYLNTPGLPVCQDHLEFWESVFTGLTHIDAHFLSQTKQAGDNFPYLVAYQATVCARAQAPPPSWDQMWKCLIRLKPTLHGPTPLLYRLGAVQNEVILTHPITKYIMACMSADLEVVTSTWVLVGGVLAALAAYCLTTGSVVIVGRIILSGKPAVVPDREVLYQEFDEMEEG

SMILES: C=CC1CC1(NC(=O)[C@@H]1C[C@@H](NC(=O)c2cc(-c3ccccc3)nc3ccccc23)CN1C(=O)[C@@H](NC(=O)CC1CC1)C(C)(C)C)C(=O)NS(=O)(=O)C1CC1 (some centres unmarked) [Compound 9]
- IC50 [1]: 47 nM
- IC50 ([1]; read-out: IC 50 Range): < 150 nM
- IC50 [2]: 65000 nM
- IC50 [3]: 30 nM
- IC50 [4]: > 100000 nM
